In US20070232609A1, “Novel Antiparasitic Combination of Active Compounds” (BAYER HEALTHCARE AG, priority 2004, published 2007):

Tested on: Eimeria acervulina, E. maxima, E. tenella
Test: Cage experiment on coccidiosis/chicks
Type: in vivo
Conditions: for Mortality %: day -3 to 8 (9) p.i.; for % efficacy (total score): 0% no action, 100% full action; for Dropping score / Lesion score: assessment 0 to 6
Description: The efficacy of the compounds according to the invention can be confirmed, for example, in cage experiments with the following experimental arrangement, in which the animals are treated with the respective individual components and with the mixtures of the individual components.
An active compound-containing feed is prepared such that the required amount of active compound is basically mixed with a nutritionally balanced animal feed, e.g. with the chick feed indicated below.
Cage Experiment on Coccidiosis/Chicks
8- to 12-day-old male chicks (e.g. LSL Brinkschulte/Senden) which have been reared coccidia-free receive the compounds according to the invention (test substances) in the concentration indicated in ppm with the feed from 3 days before (day −3) infection (=a.i.) until 8 (9) days after infection (=p.i.). 3 animals are kept in each cage. One or more groups of this type are employed per dose. Infection is carried out by means of a stomach tube directly into the crop with approximately 100 000 sporulated oocysts of Eimeria acervulina and with approximately 30 000 oocysts each of E. maxima and 40 000 sporulated oocysts of E. tenella. These are highly virulent strains. The exact infection dose is adjusted so that, if possible, one of three experimentally infected untreated chicks dies due to the infection. For assessment of the efficacy, the following criteria are taken into account: weight increase from the start of the experiment to the end of the experiment, death rate due to infection, macroscopic assessment of the faeces with respect to diarrhea and excretion of blood on days 5 and 7 p.i. (assessment 0 to 6), macroscopic assessment of the intestinal mucosa, in particular of the appendices (assessment 0 to 6) and the oocyst excretion as well as the proportion (in %) of the oocysts sporulating in the course of 24 hours. The number of oocysts in the faeces was determined with the aid of a McMaster counting chamber (see Engelbrecht and coworkers “Parasitologische Arbeitsmethoden in Medizin und Veterinärmedizin” [Parasitological Working Methods in Medicine and Veterinary Medicine], Akademie-Verlag, Berlin (1965)). The individual findings are related to the untreated non-infected control groups and a total score is calculated (cf. A. Haberkorn (1986), pp. 263 to 270 in Research in Avian Coccidiosis ed. L. R. McDougald, L. P. Joyner, P. L. Long, Proceedings of the Georgia Coccidiosis Conference, Nov. 18-20, 1985, Athens/Georgia USA).
In the column “ppm”, the concentration of the active compound employed in the feed is indicated in ppm.
In the column “mortality”, the percentage of the dead animals is indicated under % and the number of dead animals/animals employed in the experiment is indicated under n.
In the column “weight % of not inf. control”, the ratio of the weight of the treated animals to the weight of the non-infected control group is indicated.
In the columns “dropping scores”, “lesion score” and “oocyst control”, individual details of the action are given.
In the column “% efficacy”, the total score is assessed; 0% means no action, 100% means full action.

Compound: N#CC(c1ccc(Cl)cc1)c1c(Cl)cc(-n2ncc(=O)[nH]c2=O)cc1Cl (stereo not shown) [Diclazuril]
- Mortality n (dead animals/animals employed) (0.05 ppm in feed): 0/3
- Oocysts in % of inf. control (0.05 ppm in feed): 17.0 % of inf. control
- Weight in % of not inf. control (0.05 ppm in feed): 86 % of not inf. control
- Mortality % (0.05 ppm in feed): 0%
- % efficacy (total score) (0.05 ppm in feed): 69.3%
- Dropping score (0.05 ppm in feed): 0
- Lesion score (0.05 ppm in feed): 0
- Mortality n (dead animals/animals employed) (0.1 ppm in feed): 0/3
- Oocysts in % of inf. control (0.1 ppm in feed): 14.0 % of inf. control
- Weight in % of not inf. control (0.1 ppm in feed): 92 % of not inf. control
- Mortality % (0.1 ppm in feed): 0%
- % efficacy (total score) (0.1 ppm in feed): 77.0%
- Dropping score (0.1 ppm in feed): 0-2
- Lesion score (0.1 ppm in feed): 0

Compound: FC(F)(F)c1nc2c(Cl)cc3c(c2[nH]1)OC(F)(F)C(F)(F)O3 [(I-A)*]
- Mortality n (dead animals/animals employed) (1 ppm in feed): 0/3
- Oocysts in % of inf. control (1 ppm in feed): 36.0 % of inf. control
- Weight in % of not inf. control (1 ppm in feed): 16 % of not inf. control
- Mortality % (1 ppm in feed): 0%
- % efficacy (total score) (1 ppm in feed): 15.7%
- Dropping score (1 ppm in feed): 6
- Lesion score (1 ppm in feed): 6
- Mortality n (dead animals/animals employed) (2.5 ppm in feed): 0/3
- Oocysts in % of inf. control (2.5 ppm in feed): 80.7 % of inf. control
- Weight in % of not inf. control (2.5 ppm in feed): 41 % of not inf. control
- Mortality % (2.5 ppm in feed): 0%
- % efficacy (total score) (2.5 ppm in feed): 12.3%
- Dropping score (2.5 ppm in feed): 6
- Lesion score (2.5 ppm in feed): 6
